In patent publication EP0181578B1, “Antibiotic polypeptide, process for its preparation and its use” (Dr. Karl Thomae GmbH, priority 1984, dated 1991):
Ends that are not written are not given here.

What was measured:
[1] = tested on: Staphylococcus epidermidis DSM 3095; test: Resistance and sensitivity of the producer strain (strain characterisation, adaptation to rising Epidermin concentrations); type: cell-based; details: for Sonstige Resistenzen: in Flüssigkultur, marked resistance
Source text: Der zur Herstellung von Epidermin verwendete Stamm wird nach Schleifer & Kloos (Int. J. Syst. Bact. 25, 50-61 (1975)) wie folgt charakterisiert: Gramfärbung : positiv Zellgröße : Durchmesser 0,5-0,8 µm Koloniengröße : ca. 1 mm Durchmesser Aussehen der Kolonien : glatt, glänzend, in der Mitte leicht erhöht Kolonienfarbe : gräulich - weiß Zellen in Kultur : oft Einzelzellen oder Zweier-Pakete, selten größere Haufen Hämolyse : auf Blutplatten ausgestrichene Kulturen zeigten starke Hämolyse Anaerobes Wachstum : der Stamm wächst auch unter anaeroben Bedingungen Lysozymempfindlichkeit: : die Zellen sind bis 2 mg/ml resistent gegen Lysozym Lysostaphinempfindlichkeit : die Zellen sind schon bei 20 µg/ml sensitiv für Lysostaphin Epidermin-Resistenz : bis 1 mg/ml nachgewiesen Sonstige Resistenzen : in Flüssigkultur zeigt der Stamm eine ausgeprägte Resistenz gegenüber Streptomycin (bis 1 mg/ml) und Spectinomycin (0,5 mg/ml) Erhöhter NaCl-Gehalt : Der Stamm wächst noch gut bis 15% Gew.-% Natriumchlorid.
(§1) Der neue Klon DSM 3095 wurde wie folgt gewonnen: Die Adaption wurde in 100 ml Erlenmeyerkölbchen mit einem seitlichen Einstich und 10 ml Nährlösung (Brain Heart Infusion) durchgeführt. Die Startkultur wurde mit 0,5 ml einer 12 Stunden alten Kultur angeimpft. Für die Kölbchen, die steigende Epidermin-Konzentrationen enthielten, dienten 0,5 ml der jeweils vorangegangenen, gutgewachsenen Kultur als Impfmaterial. Die Beurteilung des Wachstums erfolgte photometrisch bei 578 nm. […] Als Vergleichswert wurde eine unverdünnte 12 Stunden alte Kultur des literaturbekannten Vergleichsstammes NCIB 11536 ausplattiert. Nach 24 Stunden Inkubation bei 37°C zeigten sich bei der auf 10⁻⁶ verdünnten adaptierten Kultur 94 Einzelkolonien. […] Die resistenten Kolonien wurden selektioniert und auf Platten Medium 2 im Raster ausgestrichen. Nach einem Vortest auf Produktion durch Ausstechen von Stückchen mit 5 mm Durchmesser und Aktivitätstest auf Micrococcus luteus ATCC 9341 wurden produzierende Klone im Flüssigmedium getestet.

[2] = tested on: verschiedener Mikroorganismen; test: Plate diffusion test, spectrum of activity; type: cell-based; details: for Empfindlichkeit verschiedener Mikroorganismen: Plattendiffusionstest, Tabelle 2
Source text: Während der Herstellung und Isolierung des Epidermins wurde zur biologischen Charakterisierung der Plattendiffusionstest angewandt; nämlich zur Aufnahme des Wirkungsspektrums sowie zur Kontrolle von Produktion, Aufarbeitung und Anreicherung. Der Test wurde, wie bei Zähner und Maas, Biology of antibiotics (Springer Verlag, Berlin-Heidelberg-New York, 1972) beschrieben, in Petrischalen der Firma Greiner, Nürtingen mit Filterrondellen von 6 mm Durchmesser (Macherey & Nagel, Düren) durchgeführt. Die Filterrondellen wurden mit 20 µl der betreffenden Testflüssigkeit benetzt, bei Raumtemperatur auf einer Glasplatte getrocknet und auf die Testplatten aufgelegt. Die Testplatten wurden bei 37°C inkubiert und nach ca. 16 Stunden die Wachstumshemmung ausgewertet. Als Routinetestkeim diente Streptococcus pyogenes ATCC 8668 und, aufgrund seiner problemloseren Handhabung, Micrococcus luteus ATCC 9341. Testplatten mit Streptococcus pyogenes ATCC 8668: Der Testkeim mußte vor Herstellung der Testplatten auf Blutplatten mit Mucin [Medium: 500 ml Agar pH 7,4, 160 ml Mucinlösung (10 Gewichtsprozent), 3,5 ml Glucoselösung (50 Gewichtsprozent), 70 ml Hammelblut] frisch überimpft werden. Nach 15-18 Stunden Inkubation bei 37°C wurde eine Salinesuspension (E₅₇₈ 0,5) hergestellt und 1 ml dieser Suspension zu 100 ml Nährboden (Medium: Pepton 10 g, Fleischextrakt 8 g, Kochsalz 3 g, Na₂HPO₄ 2 g, Glucose 10 g auf 1 l, pH 7,2) pipettiert. Die zu 10 ml Portionen gegossenen Platten waren einige Tage bei 4°C haltbar. Testplatten mit Micrococcus luteus ATCC 9341: Eine Übernachtkultur (Medium: Pepton 10 g, Fleischextrakt 8 g, Kochsalz 3 g, Na₂HPO₄ 2 g, Glucose 10 g auf 1 l, pH 7,2) wurde auf eine Extinktion von 1,0 bei 578 nm verdünnt. Mit 0,25 ml dieser Suspension wurden 100 ml Agar angeimpft und Platten zu 10 ml gegossen. Die Testplatten konnten mehrere Tage bei 4°C aufbewahrt werden. […]

[3] = tested on: Staphylococcus epidermidis NCIB 11536; test: Biophotometer test, Epidermin added in different growth phases; type: cell-based
Description: (§2) Die Versuche zur Eigenhemmung des Produzentenstammes durch das Antibiotikum und die Untersuchung auf Resistenz der selektionierten Klone wurden im Biophotometer (Eppendorf-Photometer mit Umlaufautomat) durchgeführt.
(§3) Diese Versuche können z.B. im einzelnen wie folgt durchgeführt werden: Jeweils 0,5 ml einer 12 Stunden Kultur von Staphylococcus epidermidis NCIB 11536 bzw. des selektionierten resistenten Stammes DMS 3095 wurden auf frisches Medium überimpft.
(§4) Diese Kulturen ließ man bis zu einer Extinktion von 0,043 bei 578 nm hochwachsen (Küvetten mit einer Schichtdicke von 1 cm) und verteilte sie dann in Portionen zu 7,5 ml in die Küvetten des Biophotometers (Schichtdicke 2 cm).
(§5) Die Dichte der Zellsuspension wurde im Biophotometer auf eine Transmission von 90% eingestellt. Die Inkubation erfolgte bei 37°C und maximaler Belüftung. Epidermin wurde als wässrige Lösung in unterschiedlichen Wachstumsphasen zugegeben.
(§6) Bei beiden Stämmen wurden zu Beginn und in der Mitte der logarithmischen Phase unterschiedliche Epidermin-Konzentrationen zugegeben. Die Ergebnisse sind in Abbildung 13 und 14 dargestellt.

[4] = in vivo
[5] = tested on: Vergleichsstamm NCIB 11536; test: Growth of the comparison strain on plates containing Epidermin; type: cell-based, Staphylococcus epidermidis; details: undiluted 12 h culture on plates with 0,15 mg/ml Epidermin, 48 Stunden
Description: as §1

[6] = tested on: resistenter Klon DSM 3095; test: Biophotometer test, Epidermin added in different growth phases; type: cell-based, Staphylococcus epidermidis
Description: as §2, §3, §4, §5, §6

Zellen = test: Mode of action (bactericidal, lysis of cells); type: cell-based; details: leads to lysis of the cells; same as the culture broth
[7] = tested on: Propionibakteriumacnes-Stämme; test: Plate diffusion test and minimal inhibitory concentration (Tables 2 and 3); type: cell-based, Propionibacterium acnes; details: summary of Tabellen 2 und 3
Source text: Während der Herstellung und Isolierung des Epidermins wurde zur biologischen Charakterisierung der Plattendiffusionstest angewandt; nämlich zur Aufnahme des Wirkungsspektrums sowie zur Kontrolle von Produktion, Aufarbeitung und Anreicherung. Der Test wurde, wie bei Zähner und Maas, Biology of antibiotics (Springer Verlag, Berlin-Heidelberg-New York, 1972) beschrieben, in Petrischalen der Firma Greiner, Nürtingen mit Filterrondellen von 6 mm Durchmesser (Macherey & Nagel, Düren) durchgeführt. Die Filterrondellen wurden mit 20 µl der betreffenden Testflüssigkeit benetzt, bei Raumtemperatur auf einer Glasplatte getrocknet und auf die Testplatten aufgelegt. Die Testplatten wurden bei 37°C inkubiert und nach ca. 16 Stunden die Wachstumshemmung ausgewertet. Als Routinetestkeim diente Streptococcus pyogenes ATCC 8668 und, aufgrund seiner problemloseren Handhabung, Micrococcus luteus ATCC 9341. Testplatten mit Streptococcus pyogenes ATCC 8668: Der Testkeim mußte vor Herstellung der Testplatten auf Blutplatten mit Mucin [Medium: 500 ml Agar pH 7,4, 160 ml Mucinlösung (10 Gewichtsprozent), 3,5 ml Glucoselösung (50 Gewichtsprozent), 70 ml Hammelblut] frisch überimpft werden. […]

[8] = Solubility (characterisation data); type: physicochemical
Source text: (§7) Die neue Verbindung Epidermin kann durch folgende Angaben charakterisert werden: • 1. Natur: farbloses Pulver • 2. […] Methanol/Eisessig, löslich in niederen Alkoholen, unlöslich in Chloroform, Aceton, Diethylether, Petrolether. • 3. Farbreaktion auf Kieselgelplatten: Ninhydrin, Chlor/TDM (TDM=4,4'-Bis-(dimethylamino)diphenylmethan), Orcin/Schwefelsäure, Anisaldehyd/Schwefelsäure. Zerstörungsfreier Nachweis im UV-Licht bei 254 nm und durch Sprühen mit Wasser. • 4. Dünnschichtchromatographie: Es wurden Kieselgelfertigplatten 60 F₂₅₄ (Merck) verwendet. System A: Chloroform/Methanol/17% Ammoniak (2/2/1), RF = 0,73 System B: Chloroform/Methanol/17% Ammoniak (70/35/10) RF = 0,30 System C: n-Butanol/Eisessig/Wasser (4/1/1) RF = 0,05 • 5. HPLC : siehe Abb. 7. • 6. […] Molmasse: im Bereich von 2160. Je nach Isolierungsmethoden können als Anionen, z.B. Chlorid, Acetat oder Phosphat, enthalten sein. • 8. Ultraviolettabsorptionsspektrum: In wässriger Lösung langwelliges Maximum bei 267 nm (Abb. 3). • 9. Infrarotabsorptionsspektrum: IR-Spektrum einer Probe in einer Kaliumbromidtablette (Abb. 4). • 10. Kernmagnetische Resonanzspektren ¹H-NMR Spektrum: Abb. 5, ¹³C-NMR-Spektrum: Abb. 6

[9] = pH stability, retention of antibiotic activity in aqueous solutions of different pH; type: physicochemical
Source text: as §7
Stabilitätstests und chromatographische Untersuchungen wurden am lyophylisierten Butanolextrakt durchgeführt. Die Inkubation des Extraktes mit wässrigen Lösungen verschiedener pH-Werte ergab ab pH 10 eine starke Abnahme der Aktivität, im Bereich von pH 2-7 ist das Antibiotikum jedoch stabil.

## CN[C@@H]1[C@H](O)[C@H](NC)[C@H]2O[C@@]3(O)C(=O)C[C@@H](C)O[C@H]3O[C@@H]2[C@H]1O [Spectinomycin]
[1]
  Sonstige Resistenzen: 0,5 mg/ml

## [H]/N=C(/N)N[C@H]1[C@H](O)[C@@H](O)[C@H](O[C@@H]2O[C@@H](C)[C@](O)(C=O)[C@H]2O[C@@H]2O[C@@H](CO)[C@H](O)[C@@H](O)[C@@H]2NC)[C@@H](N/C(N)=N\[H])[C@@H]1O [Streptomycin]
[1]
  Sonstige Resistenzen: ≤ 1 mg/mL

## Epidermin: ribosomal synthetisiertes, heterodet tetracyclisches Dokosapeptidantibiotikum aus Staphylococcus epidermidis DSM 3095 (IASKFICTPGCAKTGSFNSYCC; also: heterodetic tetracyclic lantibiotic, rings and modified residues not placed; UniProt P08136 31-52, looked up)
[2]
  Empfindlichkeit verschiedener Mikroorganismen: fast ausschließlich auf grampositive Bakterien wirken
[2]; especially good against a whole series of gram-positive bacteria
  antibakterielle Wirksamkeit: sehr gute antibakterielle Wirksamkeit
[3]; Abb. 13 Kurve 2: 10 µg/ml zu Beginn der logarithmischen Phase
  Wachstumsverlauf: Lyse
[3]; Abb. 13 Kurve 3: 10 µg/ml in der Mitte der logarithmischen Phase
  Wachstumsverlauf: Lyse
[3]; Abb. 13 Kurve 4: 2,5 µg/ml in der Mitte der logarithmischen Phase
  Wachstumsverlauf: Wachstumsverzögerung
[1]; adapted culture diluted to 10⁻⁶, plate with 0,5 mg/ml Epidermin, 24 Stunden 37°C
  Einzelkolonien: 94
[1]; adapted culture, 1,0 mg/ml Epidermin in Flüssigkultur
  Wachstum: noch gut gewachsen
[1]; against the Epidermin it produces itself
  Resistenz: resistent
[1]; resistance shown up to this concentration
  Epidermin-Resistenz: ≤ 1 mg/mL
[4]
  Verträglichkeit: sehr gut verträglich
  toxische Wirkungen: keine toxischen Wirkungen
[5]
  Wachstum: wuchs auch nach 48 Stunden Inkubation nicht
[6]; Abb. 14 Kurve 2: 120 µg/ml zu Beginn der logarithmischen Phase
  Wachstumsverlauf: geringfügige Wachstumsverzögerung
[6]; Abb. 14 Kurve 3: 360 µg/ml in der Mitte der logarithmischen Phase
  Wachstumsverlauf: Wachstumsverzögerung
[6]; all concentrations tested so far
  Lyse: keine Lyse
Zellen
  Wirkung: bakterizide Wirkung
[7]
  Wirksamkeit: sehr gute Wirksamkeit
[8]; in Chloroform, Aceton, Diethylether, Petrolether
  Löslichkeit: unlöslich
[8]; in Mischungen aus Wasser/Eisessig bzw. Methanol/Eisessig
  Löslichkeit: Sehr gut löslich
[8]; in niederen Alkoholen
  Löslichkeit: löslich
[9]; bei höheren pH-Werten (above pH 7)
  Stabilität: starker Aktivitätsabfall
[9]; pH=2 bis pH=7
  Stabilität: Stabil
[9]; tested on lyophilised butanol extract, pH 2-7
  Stabilität: stabil

## Nisin (ITSISLCTPGCKTGALMGCNMKTATCHCSIHVSK; also: lantibiotic: thioether rings and dehydro residues, not placed; UniProt P13068 24-57, looked up) [Vergleichsantibiotikum (vgl. DE-A-2 000 818 bzw. GB-B-1 182 156), Aktivität von 40000 units, reference compound]
[2]; Nisin mit einer Aktivität von 40000 units
  Empfindlichkeit verschiedener Mikroorganismen: fast ausschließlich auf grampositive Bakterien wirken
